Assay results taken from patent publication US7285558B2, “Pyrazolo[3,4-d]pyrimidines inhibiting H. pylori infections” (AstraZeneca AB, priority 2001, dated 2007).
pIC50: −log10 of the molar value. Structures can show the parent of a compound that is named as a salt.

What was measured:
H. pylori MurI = target: T1, H. pylori MurI (Helicobacter pylori, UniProt Q9ZLT0); assay: Glutamate racemase (MurI) activity assay, coupled to L-glutamate dehydrogenase (LGDH), fluorescence readout; format: biochemical; conditions: 1000 nM H. pylori MurI, 40 μM D-glutamate, room temperature, read-out: LGDH I50
T1 sequence (Q9ZLT0 1-255): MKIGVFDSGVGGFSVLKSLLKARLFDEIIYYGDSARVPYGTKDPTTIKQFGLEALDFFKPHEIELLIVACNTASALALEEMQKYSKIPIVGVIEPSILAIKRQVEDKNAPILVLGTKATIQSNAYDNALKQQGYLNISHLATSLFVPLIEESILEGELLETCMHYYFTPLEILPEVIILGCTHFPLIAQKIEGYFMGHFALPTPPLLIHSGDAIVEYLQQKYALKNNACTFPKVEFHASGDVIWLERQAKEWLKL
Method: Glutamate Racemase Activity Assay:
Glutamate racemase (MurI) activity was assayed by measuring the conversion of glutamate from D to L enantiomer. This reaction was coupled to the reduction of NAD^+ to NADH by L-glutamate dehydrogenase (LGDH). LGDH from bovine liver was obtained as a lyophilized powder (Sigma #G-7882) and dissolved in 10 mM Tris (Sigma #T-6791), pH 7.5, buffer containing 0.1 mM EDTA (Fisher #BP118-500) and 50% glycerol (Sigma #G-9012). The assay mixture consisted of 100 mM Tris-HCl, pH 8.0, 10 mM β-NAD (Sigma #N-7004), 5 mM DTT (Sigma #D-5545), 0.03% PEG (mw 8000, Sigma #P-5413), 0.03 mg/mL BSA (Pierce #23210), 15 U/mL LGDH, D-glutamate (Fluka #49460), and purified MurI. The following MurI concentrations were used: 1000 nM H. pylori MurI, 0.7 nM E. faecalis MurI, or 0.4 nM E. coli MurI. In the case of E. coli MurI 14 μM UDP-MurNAc-Ala was also added. The final concentration of D-glutamate added for H. pylori MurI was 40 μM, and the other orthologs used 1 mM D-glutamate. The assay was performed in 96-well black microtiter plates (Greiner #XN2-9511) with a final assay volume of 100 μL. Compounds were prepared (x) […]
[…] as 20 mM stock solutions in dimethyl sulphoxide (DMSO, Sigma #D-5879) and serial dilutions were prepared from these solutions using DMSO, 2 μL of which were added to the wells. Activity at room temperature was measured by monitoring the increase in fluorescence using a TECAN Ultra platereader with 340 nm excitation and 465 nm emission filters. The compounds provided have measured IC50 of less then 400 μM

## CCC(C#N)n1c(=O)n(C)c(=O)c2c(-c3ccncc3)n(Cc3cccc4ccccc34)nc21 (racemic) (as salt: trifluoroacetate) [Example 130, ±2-[5-methyl-2-(1-naphthylmethyl)-4,6-dioxo-3-(4-pyridinyl-2,4,5,6-tetrahydro-7H-pyrazolo[3,4-d]pyrimidin-7-yl]butanenitrile]
other
  melting point: 75 to 77 °C

## Cn1c(=O)c2c(-c3ccncc3)n(Cc3cccc4ccccc34)nc2n(C[S+]([O-])C(F)(F)F)c1=O (racemic) [Example 125, (±)5-methyl-2-(1-naphthylmethyl)-3-(4-pyridinyl)-7-{[(trifluoromethyl)sulfinyl]methyl}-2H-pyrazolo[3,4-d]pyrimidine-4,6(5H,7H)-dione,7H)-dione]
H. pylori MurI
  pIC50: 4.34

## Cn1c(=O)c2c(-c3ccncc3)n(Cc3cccc4ccccc34)nc2n(C[S+](C)[O-])c1=O (racemic) [Example 127, (±)5-methyl-7-[(methylsulfinyl)methyl]-2-(1-naphthylmethyl)-3-pyridin-4-yl-2H-pyrazolo[3,4-d]pyrimidine-4,6(5H,7H)-dione]
H. pylori MurI
  pIC50: 4.59
other
  melting point: 107 to 109 °C

## CCC(C#N)n1c(=O)n(C)c(=O)c2c(-c3ccncc3)n(Cc3cccc4ccccc34)nc21 (racemic) [Example 130, ±2-[5-methyl-2-(1-naphthylmethyl)-4,6-dioxo-3-(4-pyridinyl-2,4,5,6-tetrahydro-7H-pyrazolo[3,4-d]pyrimidin-7-yl]butanenitrile]
H. pylori MurI
  pIC50: 5.04

## Cn1c(=O)c2c(-c3ccncc3)n(Cc3cccc4ccccc34)nc2n(CS(=O)(=O)C(F)(F)F)c1=O [Example 126, 5-methyl-2-(1-naphthylmethyl)-3-(4-pyridinyl)-7-{[(trifluoromethyl)sulfonyl]methyl}-2H-pyrazolo[3,4-d]pyrimidine-4,6(5H,7H)-dione]
H. pylori MurI
  pIC50: 4.74

## Cn1c(=O)c2c(-c3ccncc3)n(Cc3cccc4ccccc34)nc2n(C[S+]([O-])c2ccccc2)c1=O (stereo not shown) [Example 128, 5-methyl-2-(1-naphthylmethyl)-7-[(phenylsulfinyl)methyl]-3-pyridin-4-yl-2H-pyrazolo[3,4-d]pyrimidine-4,6(5H,7H)-dione]
other
  melting point: 130 to 135 °C

## CC(C)Cn1c(=O)n(C)c(=O)c2c(-c3cccc(-c4nnn[nH]4)c3)n(Cc3cccc4ccccc34)nc21 [Example 129, 7-isobutyl-5-methyl-2-(1-naphthylmethyl)-3-[3-(1H-1,2,3,4-tetraazol-5-yl)phenyl]-2H-pyrazolo[3,4-d]pyrimidine-4,6(5H,7H)-dione]
H. pylori MurI
  pIC50: 5.80
other
  melting point: 251 to 254 °C

## CC(C)Cn1c(=O)n(C)c(=O)c2c(-c3ccccc3F)n(Cc3csc4ccccc34)nc21 [Example 131, 2-(1-benzothiophen-3-ylmethyl)-3-(2-fluorophenyl)-7-isobutyl-5-methyl-2H-pyrazolo[3,4-d]pyrimidine-4,6(5H,7H)-dione]
other
  melting point: 55 to 57 °C
